Laboratory results as given in article PMC8950706, “Influence of Substitutions in the Binding Motif of Proline-Rich Antimicrobial Peptide ARV-1502 on 70S Ribosome Binding and Antimicrobial Activity” (International Journal of Molecular Sciences, 2022).
In brackets after ≈: the same amount, converted by molar mass. Square brackets hold non-standard residues; d marks the D form. Peptide text beside a SMILES is read from it. Ac6c = NC1(C(=O)O)CCCCC1

What was measured:
E. coli BW25113 = experiment: MIC, liquid broth micro dilution, wild type; type: cell-based, Escherichia coli; conditions: for MIC (µg/mL), Table 3: BW25113, 4 h; for Minimal Inhibitory Concentration, 25% MHB2, wt / Minimal Inhibitory Concentration, 33% TSB, wt: BW25113, 20 h
In short: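 Twofold peptide dilutions from 128 mg/L were made in 25% MHB2 or 33% TSB, with 4 h subcultured bacteria added to […]. After 20 h at 37 °C, OD595 was read; MIC is the lowest peptide concentration preventing visible growth.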

E. coli 70S ribosome [1] = experiment: Competitive FP binding screening assay with Cf-ARV-1502 (relative FP); set-up: species or system E. coli BW25113; conditions: for Ribosome Binding (%): competitive ribosome binding against Cf-ARV-1502 (relative FP; values match 1.2 µmol/L peptide), low value = strong competition
In short: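 E. coli BW25113 70S ribosomes (final 0.5 µmol/L) preincubated 90 min at 28 °C with unlabeled peptides in four twofold dilutions, then Cf-ARV-1502 (final 20 nmol/L) added for a further 90 min at 28 °C. Buffer: HEPES-KOH pH 7.6, 6 mmol/L MgCl2. Fluorescence polarization (ex 485/em 535 nm) normalized to ribosome-free and ribosome-containing controls.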

E. coli 70S ribosome [2] = experiment: Competitive fluorescence polarization assay against Cf-ARV-1502 (Ki); type: binding, E. coli BW25113; conditions: 20 nmol/L Cf-ARV-1502, 0.5 µmol/L ribosome, 28 °C, 90 min + 90 min, Ki calculated from IC50; for Ki: read-out: Ki (nmol/L), competition with Cf-ARV-1502
Description: E. coli 70S ribosomes were prepared using a previously described protocol that was slightly modified. Briefly, E. coli BW25113 was cultivated in Luria-Bertani (LB) medium and cells were harvested after reaching an optical density of ~4 at 600 nm by centrifugation (5000× g, 15 min, 4 °C, Rotor JLA 8.100, Avanti J-20 XP, Beckmann Coulter, Krefeld, Germany). The cell pellets were frozen and stored at −80 °C. Cells were resuspended in ribosome buffer (2 mL/g cells; 20 mmol/L HEPES-KOH, 6 mmol/L MgCl2, 30 mmol/L NH4Cl, 4 mmol/L 2-mercaptoethanol, pH 7.6). Lysozyme (0.25 g/L cell suspension) was added, and the mixture was incubated on ice for 30 min. Cells were disrupted using the bead mill homogenizer FastPrep-24™ 5G (40 s, 4 m/s, 6 cycles, MP Biomedicals Germany GmbH, Eschwege, Germany) and zirconia/silica beads (0.1 mm diameter). The lysate was centrifuged (1500× g, 5 min, 4 °C, Rotor S4180, Allegra 21R, Beckmann Coulter) and the supernatant was incubated with DNase (5 U/mL) on ice for 60 min.
Dissociation and inhibitory constants were determined in black 384-well-plates (Greiner Bio-One GmbH, Frickenhausen, Germany) blocked with 0.5% (w/v) casein in phosphate buffered saline (PBS, 8.8 mmol/L Na2HPO4×12 H2O, 1.2 mmol/L KH2PO4, 0.3 mol/L NaCl, pH 7.4) containing 0.05% (w/v) Tween® 20 (PBST) overnight at 4 °C and washed three times with PBST.
Ribosome solution was added (10 µmol/L) and the plate was incubated after centrifugation (2 min, 500× g, Rotor S2096, Allegra^TM 21R, Beckmann Coulter) at 28 °C for 90 min. Cf-labeled peptide was added (10 µL; final concentration of 20 nmol/L; final ribosome concentration of 0.5 µmol/L) and the plate was centrifuged and incubated again (90 min, 28 °C, dark). […] Kd and IC50 values were calculated by fitting the data with a variable slope parameter [y = min + (max − min)/(1 + (x/Kd) ^−Hill slope) ] using SigmaPlot 13 (Systat Software Inc., San Jose, CA, USA). The obtained IC50 values were used to calculate the Ki values.

[3] = control without unlabeled peptide = 100%, 0.5 µmol/L ribosome, 20 nmol/L Cf-ARV-1502, triplicates, repeated once on another day

Structure (SMILES)	MIC (µg/mL), Table 3 (E. coli BW25113) [µg/mL]	Minimal Inhibitory Concentration, 25% MHB2, wt (E. coli BW25113) [µg/mL]	Minimal Inhibitory Concentration, 33% TSB, wt (E. coli BW25113) [µg/mL]	Ribosome Binding (%) (E. coli 70S ribosome [1])	Relative FP at 1.2 µmol/L unlabeled peptide (E. coli 70S ribosome [1]; [3]) [%]	Relative FP at 2.4 µmol/L unlabeled peptide (E. coli 70S ribosome [1]; [3]) [%]	Ki (E. coli 70S ribosome [2]) [nmol/L]	Inhibition of Cf-ARV-1502 binding to the 70S ribosome (in words) (E. coli 70S ribosome [1]; Figure 3: peptide concentration 1.2 µmol/L)	Ki (nmol/L), competition with Cf-ARV-1502 (E. coli 70S ribosome [2])
CC(C)C[C@H](NC(=O)[C@H](Cc1ccc(O)cc1)NC(=O)[C@@H]1CCCN1C(=O)[C@H](CCCNC(=N)N)NC(=O)[C@@H]1CCCN1C(=O)[C@H](CCCCN)NC(=O)[C@H](CC(=O)O)NC(=O)[C@@H]1CCCN1C(=O)[C@H](CCCNC(=N)N)NC(=O)C1(N)CCCCC1)C(=O)N1CCC[C@H]1C(=O)N[C@@H](CCCNC(=N)N)C(=O)N1CCC[C@H]1C(=O)N[C@@H](CCCNC(=N)N)C(=O)N1CCC[C@H]1C(=O)N1CCC[C@H]1C(=O)N[C@@H](CCCNC(=N)N)C(=O)N1CCC[C@H]1C(=O)N[C@H](C(=O)N[C@@H](CCCNC(=N)N)C(N)=O)C(C)C [ARV-1502] (H-[Ac6c]RPDKPRPYLPRPRPPRPVR-NH2)	8 (≈ 3.23 µM)	8	16	40.9 ± 3.9	40.9 ± 3.9	32.1 ± 1.3	135 ± 10		
CC[C@H](C)[C@H](NC(=O)[C@@H](CCCNC(=N)N)NC(=O)[C@H](CCCNC(=N)N)NC(=O)[C@@H]1CCCN1C(=O)[C@@H]1CCCN1C(=O)[C@H](CCCNC(=N)N)NC(=O)[C@@H]1CCCN1C(=O)[C@H](CCCNC(=N)N)NC(=O)[C@@H]1CCCN1C(=O)[C@H](CC(C)C)NC(=O)[C@H](Cc1ccc(O)cc1)NC(=O)[C@@H]1CCCN1C(=O)[C@@H]1CCCN1C(=O)[C@H](CCCCN)NC(=O)[C@H](CC(=O)O)NC(=O)[C@@H](N)C(C)C)C(=O)N[C@@H](Cc1ccc(O)cc1)C(=O)N[C@@H](CC(N)=O)C(=O)N[C@H](CCCNC(=N)N)C(N)=O [Onc112, reference compound] (H-VDKPPYLPRPRPPR[dR]IYN[dR]-NH2; N-terminus and C-terminus assumed)	8 (≈ 3.35 µM)	8	16	32.1 ± 1.0			124 ± 2		
CC(C)C[C@H](NC(=O)[C@H](Cc1ccc(O)cc1)NC(=O)[C@@H]1CCCN1C(=O)[C@H](CCCNC(=N)N)NC(=O)[C@@H]1CCCN1C(=O)[C@H](CCCCN)NC(=O)[C@H](CCCCN)NC(=O)[C@@H]1CCCN1C(=O)[C@H](CCCNC(=N)N)NC(=O)C1(N)CCCCC1)C(=O)N1CCC[C@H]1C(=O)N[C@@H](CCCNC(=N)N)C(=O)N1CCC[C@H]1C(=O)N[C@@H](CCCNC(=N)N)C(=O)N1CCC[C@H]1C(=O)N1CCC[C@H]1C(=O)N[C@@H](CCCNC(=N)N)C(=O)N1CCC[C@H]1C(=O)N[C@H](C(=O)N[C@@H](CCCNC(=N)N)C(N)=O)C(C)C [Peptide 2] (H-[Ac6c]RPKKPRPYLPRPRPPRPVR-NH2; N-terminus and C-terminus assumed)	4 (≈ 1.61 µM)	4	32 to 64	40.3 ± 2.2				did not reduce the competition with Cf-ARV-1502	did not alter the Ki value
